# pEC50, pIC50: −log10 of the molar value. Read-outs that look alike come from different tables or passages of the source.
# Tests used:
# [1] = target: T1, wild-type HIV reverse transcriptase (Human immunodeficiency virus type 1 group M subtype B, UniProt P04585); assay: Activity on wild type reverse transcriptase (Table 1 IC50 WT); format: biochemical
# T1 construct: wild-type and four mutant HIV reverse transcriptases
# Experimental: Using similar methods as described above, 2-[5-bromo-4-(4-cyclopropylnaphthalen-1-yl)-4H-[1,2,4]triazol-3-ylsulfanyl]-N-(2-methyl-4-sulfamoylphenyeacetamide and 2-[5-bromo-4-(4-ethylnaphthalen-1-yl)-4H-[1,2,4]triazol-3-ylsulfanyl]-N-(2-chloro-4-sulfamoylphenyl)-acetamide were synthesized, as were the N-4-carbamyl analog, 2-[5-bromo-4-(4-ethyl-naphthalen-1-yl)-4H-[1,2,4]triazol-3-ylsulfanyl]-N-(2-chloro-4-carbamoylphenyl)-acetamide and the N-4-carboxyl analog. Each of the compounds was tested against a panel of mutant HIV reverse transcriptases, including 20 of the 22 of the mutants that are found in about 2% or more of the patient samples that are resistant to the most widely used non-nucleoside HIV-RT inhibitor efavirenz ((4S)-6-chloro-4-(cyclopropylethynyl)-1,4-dihydro-4-(trifluoromethyl)-2H-3,1-benzoxazin-2-one). […] In most cases both criteria were met. […] […].
# Compounds of the invention were tested against the wild-type and four mutant HIV reverse transcriptases. The results are listed in Table 1 as EC50 (nM) and IC50 (nM). In the Table, A represents <50 nM, B is between 50 and 100 nM, and C is >100 nM. ND is not determined.
# [2] = tested on: wild type HIV-1; assay: microbe, parasite or virus in culture; format: cell-based, human immunodeficiency virus type 1 (HIV-1)
# [3] = target: mutant HIV reverse transcriptases (Human immunodeficiency virus type 1, UniProt P12497, Y768C, cells depend on it); format: cell-based
# [4] = target: mutant HIV reverse transcriptases (Human immunodeficiency virus type 1, UniProt P12497, Y775L, cells depend on it); format: cell-based
# [5] = Human immunodeficiency virus 1, Hela-JC53, read-out: EC50 WT
# [6] = read-out: IC50 WT RT, wild-type (WT) RT
# [7] = read-out: EC50 WT, wild-type (WT) HIV-1
SMILES,pIC50 [1],"pEC50 [2, 5]",pEC50 [3],pEC50 [4],"pIC50 [1, 6]","pEC50 [2, 7]"
COc1ccc2c(C)ccc(-n3c(Br)nnc3SCC(=O)Nc3ccc(S(N)(=O)=O)cc3Br)c2c1 [compound 74],> 7.30,> 7.30,> 7.30,> 7.30,,
CCOC(=O)[C@H](Cc1ccc(O)cc1)NC(=O)c1ccc(NC(=O)CSc2nnc(Br)n2-c2ccc(C3CC3)c3ccccc23)c(Cl)c1 [compound 114],7.00 to 7.30,> 7.30,> 7.30,< 7.00,,
COC(=O)[C@H](CC(C)C)NC(=O)c1ccc(NC(=O)CSc2nnc(Br)n2-c2ccc(C3CC3)c3ccccc23)c(Cl)c1 [compound 115],> 7.30,> 7.30,> 7.30,7.00 to 7.30,,
NS(=O)(=O)c1ccc(NC(=O)CSc2nnc(C(F)F)n2-c2ccc(C3CCCC3)c3ccccc23)c(Cl)c1 [compound 99],,,> 7.30,< 7.00,> 7.30,> 7.30
CCc1ccc(-n2c(Br)nnc2SCC(=O)Nc2ccc(C(=O)NCC3CCCO3)cc2Cl)c2ccccc12 (centres unmarked) [compound 125],> 7.30,> 7.30,> 7.30,> 7.30,,
CCc1ccc(-n2c(CF)nnc2SCC(=O)Nc2ccc(S(=O)(=O)NC)cc2Cl)c2ccccc12 [compound 55],7.00 to 7.30,> 7.30,> 7.30,7.00 to 7.30,,
CCc1ccc(-n2c(Br)nnc2SCC(=O)Nc2ccc(C(=O)O)cc2Br)c2ccccc12 [compound 22],> 7.30,> 7.30,> 7.30,7.00 to 7.30,,
CCc1ccc(-n2c(Br)nnc2SCC(=O)Nc2ccc(C(=O)NCC(O)CO)cc2Cl)c2ccccc12 (centres unmarked) [compound 120],> 7.30,> 7.30,> 7.30,> 7.30,,
Cc1ccc(-n2c(SCC(=O)Nc3ccc(S(=O)(=O)NC(C)C(=O)O)cc3Cl)nnc2C(F)F)c2c1CCCC2 (centres unmarked) [compound 59],> 7.30,< 7.00,< 7.00,< 7.00,,
O=C(CSc1nnc(C(F)F)n1-c1ccc(C2CC2)c2ccccc12)Nc1ccc(C(=O)O)cc1Cl [compound 14],> 7.30,> 7.30,> 7.30,> 7.30,,
CC(C)C[C@H](NC(=O)c1ccc(NC(=O)CSc2nnc(Br)n2-c2ccc(C3CC3)c3ccccc23)c(Cl)c1)C(=O)O [compound 117],> 7.30,> 7.30,7.00 to 7.30,< 7.00,,
CN(CC(=O)O)C(=O)c1ccc(NC(=O)CSc2nnc(Br)n2-c2ccc(C3CC3)c3ccccc23)c(Cl)c1 [compound 111],> 7.30,7.00 to 7.30,< 7.00,< 7.00,,
O=C(CSc1nnc(Br)n1-c1ccc(C2CC2)cc1Cl)Nc1ccc(S(=O)(=O)O)cc1Cl [compound 21],> 7.30,7.00 to 7.30,< 7.00,< 7.00,,
COC(=O)[C@@H](NC(=O)c1ccc(NC(=O)CSc2nnc(Br)n2-c2ccc(C3CC3)c3ccccc23)c(Cl)c1)C(C)C [compound 103],> 7.30,> 7.30,> 7.30,7.00 to 7.30,,
Cc1ccc2c(C)cc(C)c(-n3c(SCC(=O)Nc4ccc(S(N)(=O)=O)cc4Cl)nnc3C(F)F)c2n1 [compound 63],> 7.30,> 7.30,> 7.30,> 7.30,,
O=C(CSc1nnc(Br)n1-c1ccc(C2CC2)c2ccccc12)Nc1ccc(C(=O)O)cc1Cl [compound 11],,,> 7.30,> 7.30,> 7.30,> 7.30
CCc1ccc(-n2c(Br)nnc2SCC(=O)Nc2ccc(C(=O)N3CCC(CN)CC3)cc2Cl)c2ccccc12 [compound 138],> 7.30,> 7.30,> 7.30,> 7.30,,
NS(=O)(=O)c1ccc(NC(=O)CSc2nncn2-c2ccc(C3CC3)c3ccccc23)c(Cl)c1 [compound 66],> 7.30,> 7.30,> 7.30,< 7.00,,
Cc1cc(C(=O)O)ccc1NC(=O)CSc1nnc(C(F)F)n1-c1ccc(C)c2c1CCCC2 [compound 5],> 7.30,> 7.30,< 7.00,< 7.00,,
CCOC(=O)CNC(=O)c1ccc(NC(=O)CSc2nnc(Br)n2-c2ccc(C3CC3)c3ccccc23)c(Cl)c1 [compound 101],> 7.30,> 7.30,> 7.30,> 7.30,,

# Source: patent publication US8946273B2, “S-Triazolyl alpha-mercapto acetanilides as inhibitors of HIV reverse transcriptase” (priority 2011, dated 2015)
